# Measurements reported in US20250320213A1, “Nitrogen-Containing Heterocyclic Compounds” (Pfizer Inc., priority 2024, published 2025).
# Tests used:
# [1] = tested on: CCL17 secretion in peripheral human whole blood; assay: Human Whole Blood (HWB) CCL17 TR-FRET Assay (IL-13 stimulated CCL17 secretion); type: cell-based; details: inhibition of CCL17 secretion in human whole blood, 10 ng/mL IL13, 48 hours
# In short: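 Heparinized human whole blood was preincubated with compound (11-point, 3-fold series) for 2 h at 37°C, then stimulated with IL-13 (10 ng/mL final) for 48 h. Serum CCL17 was measured by TR-FRET sandwich immunoassay (665/615 nm ratio) after 16 h at room temperature, giving IC50.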
# [2] = target: T1, STAT6 (Homo sapiens, UniProt P42226); assay: STAT6 Reporter Luciferase Assay (IL-13 stimulated HaCaT keratinocyte NanoLuc reporter cells); type: cell-based; details: STAT6 NanoLuc luciferase reporter, IL-13 stimulated HaCaT keratinocyte cells; read-out: Reporter EC50
# T1 construct: stably transfected HaCaT keratinocyte cell line, which expresses NanoLuc luciferase reporter gene under the transcriptional control of the STAT6 responsive promoter; endogenous in cells; host or cells: HaCaT keratinocyte reporter cell line (stably transfected with a NanoLuc reporter)
# T1 sequence (P42226 1-847): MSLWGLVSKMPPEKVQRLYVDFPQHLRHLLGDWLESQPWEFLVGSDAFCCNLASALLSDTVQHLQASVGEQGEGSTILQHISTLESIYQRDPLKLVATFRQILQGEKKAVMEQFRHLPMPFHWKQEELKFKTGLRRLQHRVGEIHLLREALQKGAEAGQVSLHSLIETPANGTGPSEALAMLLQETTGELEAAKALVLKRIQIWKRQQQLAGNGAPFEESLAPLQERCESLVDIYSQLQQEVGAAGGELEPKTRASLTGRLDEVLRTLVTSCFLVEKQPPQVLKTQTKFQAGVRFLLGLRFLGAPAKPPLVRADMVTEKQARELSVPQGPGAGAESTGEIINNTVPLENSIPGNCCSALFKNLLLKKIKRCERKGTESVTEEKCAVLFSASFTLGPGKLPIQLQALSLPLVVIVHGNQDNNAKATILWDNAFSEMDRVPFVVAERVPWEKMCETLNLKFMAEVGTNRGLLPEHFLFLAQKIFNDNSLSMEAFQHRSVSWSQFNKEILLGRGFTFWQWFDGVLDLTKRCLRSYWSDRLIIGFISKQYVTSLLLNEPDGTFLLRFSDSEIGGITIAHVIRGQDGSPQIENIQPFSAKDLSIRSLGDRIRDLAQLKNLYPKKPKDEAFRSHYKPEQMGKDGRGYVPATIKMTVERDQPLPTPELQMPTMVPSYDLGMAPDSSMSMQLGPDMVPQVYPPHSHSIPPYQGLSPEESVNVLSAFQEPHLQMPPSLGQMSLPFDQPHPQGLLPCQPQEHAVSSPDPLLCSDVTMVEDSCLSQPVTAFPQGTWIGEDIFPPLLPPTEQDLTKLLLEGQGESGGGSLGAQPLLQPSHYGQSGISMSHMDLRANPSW
# In short: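 HaCaT IL-13Ra2-promoter NanoLuc reporter; cpd 2 h 37 °C in DMEM/2% HI FBS; IL-13 0.12 nM final, 4 h; Nano-Glo luminescence.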
Compound,"IC50 ([1]; Homo sapiens, 48 h)",EC50 [2],IC50 [1]
"CCn1nc(C(=O)NCc2ccc(NC(=O)N(C)C)cc2)c2c1CCN(c1ccc(-c3ncnn3C)cn1)C2 [Example 23, N-(4-(3,3-Dimethylureido)benzyl)-1-ethyl-5-(5-(1-methyl-1H-1,2,4-triazol-5-yl)pyridin-2-yl)-4,5,6,7-tetrahydro-1H-pyrazolo[4,3-c]pyridine-3-carboxamide]",0.062 µM,0.006 µM,–
"CN(C)C(=O)Nc1ccc(CNC(=O)c2csc3c2CN(c2ccc(C(=O)N(C)C)cn2)CC3)cc1 [Example 25, 5-(5-(dimethylcarbamoyl)pyridin-2-yl)-N-(4-(3,3-dimethylureido)benzyl)-4,5,6,7-tetrahydrothieno[3,2-c]pyridine-3-carboxamide]",1.49 µM,0.164 µM,–
"CC(C)n1nc(C(=O)NCc2ccc(NC(=O)N(C)C)cc2)c2c1CCN(c1ccc(-c3ncnn3C)cn1)C2 [Example 27, N-(4-(3,3-dimethylureido)benzyl)-1-isopropyl-5-(5-(1-methyl-1H-1,2,4-triazol-5-yl)pyridin-2-yl)-4,5,6,7-tetrahydro-1H-pyrazolo[4,3-c]pyridine-3-carboxamide]",0.091 µM,0.006 µM,–
"CN(C)C(=O)Nc1ccc(CNC(=O)c2nn(CC(F)(F)F)c3c2CN(c2ccc(C(=O)N(C)C)cn2)CC3)cc1 [Example 31, 5-(5-(dimethylcarbamoyl)pyridin-2-yl)-N-(4-(3,3-dimethylureido)benzyl)-1-(2,2,2-trifluoroethyl)-4,5,6,7-tetrahydro-1H-pyrazolo[4,3-c]pyridine-3-carboxamide]",0.085 µM,0.007 µM,–
"CC(C)c1nc(C(=O)NCc2ccc(NC(=O)N(C)C)cc2)c2n1CCN(c1ccc(C(=O)N(C)C)cn1)C2 [Example 32, 7-(5-(dimethylcarbamoyl)pyridin-2-yl)-N-(4-(3,3-dimethylureido)benzyl)-3-isopropyl-5,6,7,8-tetrahydroimidazo[1,5-a]pyrazine-1-carboxamide]",0.04 µM,0.009 µM,–
"CC(C)n1nc(C(=O)NCc2ccc(NC(=O)N(C)C)cc2)c2c1CCN(c1ccc(C(=O)N3Cc4cccnc4C3)cn1)C2 [Example 33, 5-(5-(6,7-dihydro-5H-pyrrolo[3,4-b]pyridine-6-carbonyl)pyridin-2-yl)-N-(4-(3,3-dimethylureido)benzyl)-1-isopropyl-4,5,6,7-tetrahydro-1H-pyrazolo[4,3-c]pyridine-3-carboxamide]",0.035 µM,0.002 µM,–
"CC(C)n1nc(C(=O)NCc2ccc(NC(=O)N(C)C)cc2)c2c1CCN(c1ncc(-c3nccn3C)cn1)C2 [Example 34, N-(4-(3,3-Dimethylureido)benzyl)-1-isopropyl-5-(5-(1-methyl-1H-imidazol-2-yl)pyrimidin-2-yl)-4,5,6,7-tetrahydro-1H-pyrazolo[4,3-c]pyridine-3-carboxamide]",0.071 µM,0.008 µM,–
"CC(C)n1nc(C(=O)NCc2ccc(NC(=O)N(C)C)cc2)c2c1CCN(c1ncc(C(=O)N(C)C)cn1)C2 [Example 35, 5-(5-(Dimethylcarbamoyl)pyrimidin-2-yl)-N-(4-(3,3-dimethylureido)benzyl)-1-isopropyl-4,5,6,7-tetrahydro-1H-pyrazolo[4,3-c]pyridine-3-carboxamide]",–,0.009 µM,0.047 µM
"CC(C)n1nc(C(=O)NCc2ccc(-c3ncc[nH]3)cc2)c2c1CCN(c1ccc(N3CCCC3=O)cn1)C2 [Example 38, N-(4-(1H-imidazol-2-yl)benzyl)-1-isopropyl-5-(5-(2-oxopyrrolidin-1-yl)pyridin-2-yl)-4,5,6,7-tetrahydro-1H-pyrazolo[4,3-c]pyridine-3-carboxamide]",1.64 µM,0.072 µM,–

# Now from value to molecule, other results behind:
"IC50 ([1]; Homo sapiens, 48 h)",EC50 [2],Compound,IC50 [1]
3.36 µM,> 10 µM,"CN(C)C(=O)Nc1ccc(CNC(=O)c2c3c(nn2C2CC2)CCN(c2ccc(C(=O)N(C)C)cn2)C3)cc1 [Example 19, 2-cyclopropyl-5-(5-(dimethylcarbamoyl)pyridin-2-yl)-N-(4-(3,3-dimethylureido)benzyl)-4,5,6,7-tetrahydro-2H-pyrazolo[4,3-c]pyridine-3-carboxamide]",–
0.072 µM,0.006 µM,"CN(C)C(=O)Nc1ccc(CNC(=O)c2nn(C3(C)CC3)c3c2CN(c2ccc(C(=O)N(C)C)cn2)CC3)cc1 [Example 20, 5-(5-(dimethylcarbamoyl)pyridin-2-yl)-N-(4-(3,3-dimethylureido)benzyl)-1-(1-methylcyclopropyl)-4,5,6,7-tetrahydro-1H-pyrazolo[4,3-c]pyridine-3-carboxamide]",–
0.217 µM,0.033 µM,"CCn1nc(C(=O)NCc2ccc(-c3ncc[nH]3)cc2)c2c1CCN(c1ccc(C(=O)N(C)C)cn1)C2 [Example 21, N-(4-(1H-imidazol-2-yl)benzyl)-5-(5-(dimethylcarbamoyl)pyridin-2-yl)-1-ethyl-4,5,6,7-tetrahydro-1H-pyrazolo[4,3-c]pyridine-3-carboxamide]",–
0.054 µM,0.021 µM,"CN(C)C(=O)Nc1ccc(CNC(=O)c2nc(C(F)(F)F)n3c2CN(c2ccc(C(=O)N(C)C)cn2)CC3)cc1 [Example 22, 7-(5-(dimethylcarbamoyl)pyridin-2-yl)-N-(4-(3,3-dimethylureido)benzyl)-3-(trifluoromethyl)-5,6,7,8-tetrahydroimidazo[1,5-a]pyrazine-1-carboxamide]",–
0.346 µM,0.384 µM,"CN(C)C(=O)Nc1ccc(CNC(=O)c2nnn3c2CN(c2ccc(C(=O)N(C)C)cn2)CC3)cc1 [Example 24, 5-(5-(dimethylcarbamoyl)pyridin-2-yl)-N-(4-(3,3-dimethylureido)benzyl)-4,5,6,7-tetrahydro-[1,2,3]triazolo[1,5-a]pyrazine-3-carboxamide]",–
0.313 µM,0.046 µM,"CN(C)C(=O)Nc1ccc(CNC(=O)c2noc3c2CN(c2ccc(C(=O)N(C)C)cn2)CC3)cc1 [Example 28, 5-(5-(dimethylcarbamoyl)pyridin-2-yl)-N-(4-(3,3-dimethylureido)benzyl)-4,5,6,7-tetrahydroisoxazolo[4,5-c]pyridine-3-carboxamide]",–
0.878 µM,2.23 µM,"CN(C)C(=O)Nc1ccc(CNC(=O)c2cnn3c2CN(c2ccc(C(=O)N(C)C)cn2)CC3)cc1 [Example 29, 5-(5-(dimethylcarbamoyl)pyridin-2-yl)-N-(4-(3,3-dimethylureido)benzyl)-4,5,6,7-tetrahydropyrazolo[1,5-a]pyrazine-3-carboxamide]",–
0.087 µM,0.005 µM,"CCn1nc(C(=O)NCc2ccc(NC(=O)N(C)C)cc2)c2c1CCN(c1ccc(-c3nccn3C)cn1)C2 [Example 30, N-(4-(3,3-Dimethylureido)benzyl)-1-ethyl-5-(5-(1-methyl-1H-imidazol-2-yl)pyridin-2-yl)-4,5,6,7-tetrahydro-1H-pyrazolo[4,3-c]pyridine-3-carboxamide]",–
0.254 µM,0.024 µM,"CCn1nc(C(=O)NCc2ccc(NC(=O)N(C)C)cc2)c2c1CCN(c1ccc(N3CCCC3=O)cn1)C2 [Example 36, N-(4-(3,3-Dimethylureido)benzyl)-1-ethyl-5-(5-(2-oxopyrrolidin-1-yl)pyridin-2-yl)-4,5,6,7-tetrahydro-1H-pyrazolo[4,3-c]pyridine-3-carboxamide]",–
0.701 µM,0.03 µM,"CC(=O)N1CCCc2cc(N3CCc4c(c(C(=O)NCc5ccc(NC(=O)N(C)C)cc5)nn4C(C)C)C3)ccc21 [Example 37, 5-(1-Acetyl-1,2,3,4-tetrahydroquinolin-6-yl)-N-(4-(3,3-dimethylureido)benzyl)-1-isopropyl-4,5,6,7-tetrahydro-1H-pyrazolo[4,3-c]pyridine-3-carboxamide]",–
> 30 µM,0.748 µM,"CC(C)n1nc(C(=O)NCc2ccc(NC(=O)N(C)C)cc2)c2c1CCN(c1ccc(C(=O)NCc3ccc(NC(=O)N(C)C)cc3)cn1)C2 [Example 39, N-(4-(3,3-Dimethylureido)benzyl)-5-(5-((4-(3,3-dimethylureido)benzyl)carbamoyl)pyridin-2-yl)-1-isopropyl-4,5,6,7-tetrahydro-1H-pyrazolo[4,3-c]pyridine-3-carboxamide]",–
